Reference: patent US20120225852A1, “USE OF STEROID COMPOUNDS” (priority 2009, published 2012)

Columns and labels:
Naive CD4+ T cells = Naive CD4+ T cells under Th17 cell polarizing conditions; type: cell-based; details: for number of CD4+ IL-10-secreting T cells: among Th17 differentiating cells, 4 days, FIG. 37; for number of CD4+ IL-17-secreting T cells: and rIL-6, 4 days, vs RPMI, FIG. 36
naïve CD4+ T cells = test: Naive CD4+ T cells under Treg cell generating conditions; type: cell-based; details: for proliferation: Treg cell generating conditions, 5 days, FIG. 39; for number of Foxp3+ Treg cells: rIL-2, with or even without rTGF-β1, 5 days, FIG. 38
[1] = system: Lymph node (LN) cells from unprimed DO11.10 TCR Tg mice; test: OVA-stimulated lymph node cell culture, T cell proliferation; type: cell-based; details: for proliferation of the T cells that respond to the antigen: LN cells stimulated with OVA, vs control RPMI, FIG. 1; for effect on T cell responses in general: overall conclusion of Example 1 (FIGS. 1-4)
[2] = system: EAE in C57BL/6 Rag−/− recipients; test: Adoptive transfer of CD4+ T cells from treated EAE donors into C57BL/6 Rag-/- recipients; type: in vivo, C57BL/6 Rag−/− mice
[3] = system: response to OVA in EAE-induced mice; test: EAE mice treated for 15 days, then immunized with OVA/CFA; type: in vivo, C57BL/6 mice
Protocol: Treatment stopped and mice were then injected with OVA/CFA (Complete Freund's Adjuvant).
Instead, the response to a new antigen that the mice are exposed to is enhanced.

EAE = EAE after cessation of 15 days of treatment, 45 additional days of monitoring; type: in vivo, C57BL/6 mice
Excerpt: The mice continued to be monitored daily for clinical signs of EAE for 45 additional days thereafter.

[4] = system: ongoing EAE in recipient mice; test: Adoptive transfer of CD4+ T cells from treated EAE donors into recipients with ongoing EAE; type: in vivo
[5] = system: ongoing EAE in recipient mice; test: Adoptive transfer of DLN cells from treated EAE donors into recipients with ongoing EAE; type: in vivo
Excerpt: The donor DLN cells were obtained on day 17, which is the peak of disease for control mice. This protection was observed until day 28-30 when the mice were euthanized.

[6] = mitogen-induced proliferation, delayed-type hypersensitivity, mixed lymphocyte reaction; cited from earlier work
[7] = mice; cited from earlier work
[8] = system: collagen-induced arthritis (CIA); details: cited from earlier work
[9] = oral, 50 mg/kg, beginning at onset of disease

C[C@]12CC[C@H](O)CC1=CC[C@@H]1[C@@H]2CC[C@@]2(C)[C@H]1CC[C@@]21CO1 [BNN-50, 17β-spiro-[5-androsten-17,2′-oxiran]-3β-ol]
number of CD4+ IL-10-secreting T cells (Naive CD4+ T cells): significant increase
number of CD4+ IL-17-secreting T cells (Naive CD4+ T cells): increase
proliferation (naïve CD4+ T cells): increased
number of Foxp3+ Treg cells (naïve CD4+ T cells): significant increase
proliferation of the T cells that respond to the antigen [1]: significantly decreased
effect on T cell responses in general [1]: immunosuppressive effect

C[C@]12CC[C@H](O)CC1=CC[C@@H]1[C@@H]2CC[C@@]2(C)[C@H]1CC[C@@]21OC1CO (stereo partly drawn) [BNN-93, 3β,21-dihydroxy-17α,20-epoxy-5-pregnene]
ex vivo proliferation to MOG35-55 ([2]; DLN cells of Rag−/− recipients, FIG. 33a): substantially decreased
production of IFN-γ ([2]; DLN cells of Rag−/− recipients, FIG. 33b): decreased production
production of IL-17 ([2]; DLN cells of Rag−/− recipients, FIG. 33c): decreased production
EAE scores induced in recipients ([2]; after pertussis toxin injections, FIGS. 31 and 32): no disease
production of IFN-γ ([3]; after OVA/CFA immunization): increased
T cell response to OVA ex vivo (3H-Thymidine incorporation) ([3]; after OVA/CFA immunization, FIG. 40): substantially increased
EAE phenotype after end of treatment and OVA/CFA injection ([3]; in comparison to control mice): stable phenotype without any deterioration
protection from EAE ([3]; treated 15 days from shortly after disease onset, then OVA/CFA): clearly protected
number of CD4+ IL-10-secreting T cells (Naive CD4+ T cells): significant increase
number of CD4+ IL-17-secreting T cells (Naive CD4+ T cells): increase
proliferation (naïve CD4+ T cells): increased
number of Foxp3+ Treg cells (naïve CD4+ T cells): significant increase
proliferation of the T cells that respond to the antigen [1]: significantly decreased
effect on T cell responses in general [1]: immunosuppressive effect
protection from EAE development after cessation of treatment (EAE; treated 15 days from around day 13, monitored 45 additional days, FIGS. 34 and 35): remained protected
disease score after cessation of treatment (EAE; treated 15 days, monitored 45 additional days, vs control mice): remained unchanged
mean maximum EAE score ([4]; CD4+ T cell transfer into recipients with ongoing EAE, FIGS. 28 and 29): significant decrease
proliferation to MOG35-55 ex vivo ([4]; DLN cells and splenocytes of recipients, FIG. 30): significantly decreased
recovery of recipients ([5]; DLN cell transfer, vs PBS-treated donors, FIG. 24): rapid recovery
mean maximum disease score ([5]; DLN cell transfer, vs PBS-treated donors, FIG. 25): significant reduction
EAE development in recipients ([5]; DLN cells of donors treated days 12-17, vs DLN cells from PBS-treated donors, FIG. 24): confer suppression
ex vivo proliferation to MOG35-55 ([5]; DLN cells of recipients, FIG. 26a): significantly decreased
levels of supernatant IFN-γ ([5]; DLN cells of recipients, FIG. 26b): decreased levels
levels of supernatant IL-17 ([5]; DLN cells of recipients, FIG. 26c): decreased levels
recruitment of CD11c+ dendritic cells ([5]; draining lymph nodes of recipients, FIG. 27a): substantially decreased
recruitment of IL-17 secreting T cells ([5]; draining lymph nodes of recipients, FIG. 27b): substantially decreased
recruitment of CD4+ Foxp3+ regulatory T cells ([5]; draining lymph nodes of recipients, FIG. 27c): increased

C[C@]12CC[C@H](O)CC1=CCC1C2CC[C@@]2(C)C1CC[C@]21O[C@H]1CO (stereo partly drawn) [BNN-124, (20S)-3β,21-dihydroxy-17β,20-epoxy-5-pregnene]
number of CD4+ IL-10-secreting T cells (Naive CD4+ T cells): significant increase
number of CD4+ IL-17-secreting T cells (Naive CD4+ T cells): increase
proliferation (naïve CD4+ T cells): increased
number of Foxp3+ Treg cells (naïve CD4+ T cells): significant increase
proliferation of the T cells that respond to the antigen [1]: significantly decreased
effect on T cell responses in general [1]: immunosuppressive effect

C#C[C@]1(O)CC[C@H]2[C@@H]3[C@@H](O)C=C4C[C@@H](O)CC[C@]4(C)[C@H]3CC[C@@]21C [HE3286]
immune suppression in classical models [6]: not found to be immune suppressive
oral bioavailability [7]: up to 25%
numbers and function of CD4+CD25+FOXp3+CD127-regulatory T cells (T reg) ([8]; associated with benefit): increases
CIA peak scores [8, 9]: significantly decreased
daily severity of arthritis scores [8, 9]: significantly decreased
